Laboratory results: patent US11399539B2, “Heterocyclic compound and harmful arthropod controlling agent containing same” (Sumitomo Chemical Company, Limited, priority 2016, dated 2022)

Test system: cabbage aphids (Brevicoryne brassicae)
Test: Test Example 8 and Comparative Test: spray on cabbage seedling infested with cabbage aphids
Type: in vivo
Settings: Comparative Test according to Test example 8

SMILES	Controlling value at 500 ppm (%)
CCS(=O)(=O)c1cc(C(F)(F)F)cnc1-n1ccc(C(F)(F)F)cc1=O [A-48]	93%
CCS(=O)(=O)c1cc(C(F)(F)F)cnc1-n1cnc(C(F)(F)F)cc1=O [C-33]	77%
O=c1cc(C(F)(F)F)ccn1-c1ncc(C(F)(F)F)cc1Cl [Comparative compound 1]	7%
O=c1cc(C(F)(F)F)ncn1-c1ncc(C(F)(F)F)cc1Cl [Comparative compound 2]	14%
